{"source": "patent US20150315179A1", "about": "“COMPOUNDS AND METHODS OF TREATING NEUROLOGICAL DISORDERS” (Torrey Pines Institute For Molecular Studies, priority 2014, published 2015)", "key": {"human primary neurons": {"system": "human primary neurons", "experiment": "Neurite outgrowth, Sholl analysis of dendritic intersections", "format": "cell-based", "conditions": "2DIV until 6DIV", "source_text": "(4). The most important property of THPI-244 is its ability to increase neurite outgrowth and dendritic intersections in human primary neurons. Since both TrkA and sAPPα promote neuron growth and provide trophic support, we tested whether treatment of human primary neurons with THPI-244 induces neurite outgrowth. […] Considering an enormous potential for such an excellent results in human neurons, we did systematic analysis by also treating neurons in the presence of TrkA inhibitor to verify if the increased neurite outgrowth is mediated by TrkA receptor. Sholl analysis using ImageJ software of individual neurons (at least 30 per group) immunostained for MAP2 antibody confirmed our initial findings. […] This confirmed that THPI-244 increases TrkA protein levels which has vital role in regulating neuritic outgrowth."}, "[1]": {"system": "sAPPα in supernatants of 7WD10 cells", "experiment": "Western blot sAPPα release assay, 7WD10 cells", "format": "cell-based", "method": "(2). To ascertain that hits identified as a result of AlphaLISA assay are not due to artifacts of the detection system, the sAPPα levels were measured by Western blots as a secondary assay downstream of primary HTS to confirm hits or discard artifacts of the AlphaLISA assay. The assay was performed using a range of concentrations of hit compounds (10-5,000 nM). A hit compound named thiazole piperazine #244 (THPI-244) and THPI-326 induced dose-dependent increase of sAPPα in supernatants of 7WD10 cells (FIG. 1.3). […] Since compound THPI-244 increased sAPPα levels more than THPI-326, we focused on THPI-244 for further validation.\nWestern blot sAPPα release assay. 7WD10 cells were grown in 6-well plates and treated with test compounds and SAHA (vorinostat) at several concentrations in duplicate wells. After 24 h of drug exposure, the conditioned media (CM) was collected, centrifuged to remove cell debris and subjected to SDS-PAGE electrophoresis. sAPPα (6E10, mouse IgG from IBL America ltd) was detected using indicated antibody. To detect APP-FL holoprotein and C-terminal fragments (CTFs, CT15 antibody), the cells were lysed using lysis buffer (1% NP40) with complete protease inhibitor mix (Sigma) supplemented with sodium vanadate and microcystine. Samples were subjected to SDS-PAGE, transferred and immunoblotted with indicated antibodies and detected by enhanced chemiluminescence method. Quantification of Western blot signals was done using ImageJ software."}, "[2]": {"system": "sAPPα release from 7WD10 cells", "experiment": "AlphaLISA sAPPα release assay (pilot screen)", "format": "cell-based", "conditions": "5 μM, 7WD10 cells, 24 h", "method": "Pilot screen of AlphaLISA sAPPα release assay. 8 μL of assay media (DMEM supplemented with 10% FBS and 1× Penicillin/Streptomycin) containing 20,000 cells were added to all wells of the assay plate, except column 1 where only media was added. Plates were incubated for 4 h at 37° C., 5% CO2, 95% RH after which 80 nL of test compounds in DMSO or DMSO alone were added to respective wells using a pin tool device (VP Scientific, San Diego). After 24 h of incubation at 37° C., 5% CO2, 95% RH, sAPPα AlphaLISA beads were added in 10 μL of buffer, equilibrated for 1 h, and AlphaLISA signal was measured using a Biotek H4 Synergy microplate reader (Biotek Inc). Three parameters were calculated on a per-plate basis: (a) the signal-to-background ratio (S/B); (b) the coefficient for variation [CV; CV=(standard deviation/mean)×100)] for all compound test wells; and (c) the Z′-factor [31]. Nominally active compounds from the pilot screen were determined using mean plus 3 times the standard deviation (Mean+3SD) was used as the cut-off."}, "TrkA dimer": {"molecular_target": "T1, TrkA dimer (Homo sapiens, UniProt P04629)", "T1 construct": "endogenous in cells; host or cells: NT2 cells (stably expressing APP751; no TrkA transfection described)", "T1 sequence (P04629 33-796)": "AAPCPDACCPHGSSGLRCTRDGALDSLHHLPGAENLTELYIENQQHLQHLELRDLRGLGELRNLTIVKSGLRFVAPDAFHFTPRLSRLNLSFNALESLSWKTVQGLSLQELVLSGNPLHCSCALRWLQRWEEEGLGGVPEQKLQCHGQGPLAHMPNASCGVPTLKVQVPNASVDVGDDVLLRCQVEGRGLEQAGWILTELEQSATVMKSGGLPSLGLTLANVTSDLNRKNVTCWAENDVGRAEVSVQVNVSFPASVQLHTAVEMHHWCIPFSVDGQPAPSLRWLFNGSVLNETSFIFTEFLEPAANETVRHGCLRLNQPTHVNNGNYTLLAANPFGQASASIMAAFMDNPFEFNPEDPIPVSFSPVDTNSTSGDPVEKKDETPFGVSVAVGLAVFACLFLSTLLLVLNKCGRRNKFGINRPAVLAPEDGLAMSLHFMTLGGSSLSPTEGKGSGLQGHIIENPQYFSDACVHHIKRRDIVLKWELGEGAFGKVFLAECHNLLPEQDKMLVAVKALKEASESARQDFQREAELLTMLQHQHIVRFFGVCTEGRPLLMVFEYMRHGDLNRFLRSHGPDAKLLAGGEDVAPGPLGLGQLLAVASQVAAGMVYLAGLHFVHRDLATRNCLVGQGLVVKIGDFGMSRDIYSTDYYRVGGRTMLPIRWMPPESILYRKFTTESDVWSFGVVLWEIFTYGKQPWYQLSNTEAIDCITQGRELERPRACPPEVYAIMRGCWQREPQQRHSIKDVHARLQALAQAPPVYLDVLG", "experiment": "TrkA dimerization immunoblot, NT2 cells", "format": "cell-based", "conditions": "48 h", "method": "FIGS. 9.4A and B illustrates that THPI-244 increases TrkA dimerization in NT2 cells. FIG. 9.4A illustrates that NT2 cells were treated with THPI-244 at 100 and 200 nM for 48 h and the cell lysates were subjected to immunoblots. TrkA monomer was detected at 140 kDa and dimer at 280 kDA. […] Data are mean±SEM, n=4, **, p<0.01, ***, p<0.001 by ANOVA."}, "[3]": {"system": "sAPPα levels in conditioned medium of NT2 cells", "experiment": "sAPPα immunoblot, NT2 cells with or without TrkA inhibitor", "format": "cell-based, human", "conditions": "24 h", "method": "(§1) (3). THPI-244 increases TrkA receptor levels independent of protein kinase C (PKC). Next to clarify whether increased sAPPα levels depends on increased TrkA activation, NT2 cells were treated with THPI-244 with or without TrkA inhibitor (cat # GW 441756, Tocris Bioscience) at 50 nM final concentration. After 24 h, sAPPα levels were quantified from the conditioned medium by immunoblots. […] We next wanted to address whether increased TrkA protein levels by THPI-244 depends on PKC since PKC activators are well-known to induce sAPPα secretion (Etcheberringaray, R., et al., 2004, PNAS, 101, 11141-11146). NT2 cells were similarly treated with THPI-244 at 100 nM with or without PKC inhibitor (GF 109203, cat #0741, Tocris Bioscience) at 1.0 nM and TrkA protein levels were quantified by immunoblots as shown in FIG. 1.10 (right). […] Thus increased sAPPα level by THPI-244 is through upregulation of TrkA receptor independent of PKC."}, "TrkA protein levels": {"system": "TrkA protein levels", "experiment": "TrkA protein immunoblot, NT2 cells with or without PKC inhibitor", "format": "cell-based, human", "method": "as §1"}, "sAPPα": {"system": "sAPPα", "experiment": "sAPPα increasing activity of THPI-244 analogs", "format": "cell-based", "source_text": "The following table illustrates Chemical structures and properties of THPI-244 analogs selected out of 37 analogs, and each have significant sAPPα increasing activity. Toxicity is the minimum dose for toxicity."}, "TrkA receptors": {"molecular_target": "TrkA receptors (Homo sapiens, UniProt P04629)", "sequence (P04629 33-796)": "as above", "experiment": "Octet Red label-free binding", "conditions": "biotinylated TrkA on SSA biosensors", "method": "FIGS. 9.1A and B illustrate that THPI-244 directly binds TrkA receptors as determined by label-free, real-time Octet Red detection system. FIG. 9.1A illustrates that biotinylated TrkA was loaded on to super-streptavidin (SSA) biosensors and after obtaining the baseline, were incubated with THPI-244 which dose-dependently bound TrkA receptors (Association). Incubation with kinetics buffer rapidly dissociated the binding."}}}
{"smiles": "O=C(Cc1ccccc1)N[C@H](CNc1nc(CN2CCN(C(=O)Cc3ccccc3)CC2)cs1)c1ccccc1", "note": "[THPI-244]", "values": [{"measurement": "number of dendritic intersections", "setting": "human primary neurons; Sholl analysis", "value": "highly significant increase"}, {"measurement": "number of dendritic intersections", "setting": "human primary neurons; THPI-244 with TrkA inhibitor", "value": "almost completely prevented the increased intersections"}, {"measurement": "levels of APP-FL", "setting": "[1]; CHO cells, Western blot", "value": "no change"}, {"measurement": "increase of sAPPα over untreated control cells", "setting": "[1]; as low as 10 nM, 7WD10 supernatants", "value": 2, "unit": "fold"}, {"measurement": "increase of Alpha signal (sAPPα release)", "setting": "[2]", "value": "~2", "unit": "fold"}, {"measurement": "increase of TrkA dimer", "setting": "TrkA dimer; 100 nM", "value": 82, "unit": "%"}, {"measurement": "increase of TrkA dimer", "setting": "TrkA dimer; 200 nM", "value": 134, "unit": "%"}, {"measurement": "sAPPα levels", "setting": "[3]; THPI-244 100 nM with TrkA inhibitor GW 441756 50 nM", "value": 132, "unit": "%"}, {"measurement": "sAPPα levels", "setting": "[3]; THPI-244 100 nM", "value": 245, "unit": "%"}, {"measurement": "TrkA protein levels", "setting": "TrkA protein levels; THPI-244 100 nM", "value": 197, "unit": "%"}, {"measurement": "TrkA protein levels", "setting": "TrkA protein levels; THPI-244 100 nM with PKC inhibitor GF 109203 1.0 nM", "value": 192, "unit": "%"}, {"measurement": "% sAPPα ↑", "setting": "sAPPα", "value": 257, "unit": "%"}, {"measurement": "Kd", "setting": "TrkA receptors", "value": 5.2, "unit": "µM"}]}
